Test results published in patent US20130295026A1, “FAST DISINTEGRATING COMPOSITIONS COMPRISING NABILONE AND RANDOMLY METHYLATED BETA CYCLODEXTRIN” (priority 2010, published 2013).

Key:
[1] = 25° C; cited from earlier work
[2] = Amount of Nabilone solubilized by cyclodextrin solutions, determined by extraction of the drug from lyophilized complexes (HPLC); conditions: for Increase of Nabilone solubility compared to water: water <0.5 μg/ml
Method: For the preparation of solubility isotherms, a surplus of Nabilone was added to a dilution series of cyclodextrins in distilled water. The surplus of Nabilone was approximately 130% of the maximum amount of Nabilone that could be resolved theoretically in the cyclodextrin solution. For the preparation of standard curves, an accurately weighted amount of Nabilone was added to an aqueous RAMEB solution. Then, the suspensions were stirred at 600 rpm at a constant temperature (4° C.-40° C.) in the cold room or in an environmental simulation chamber for the time periods indicated. Afterwards, the samples were centrifuged at 10,000 rpm and filtrated to remove undissolved particles prior to freeze-drying or HPLC analysis.
The filtrated solutions of the Nabilone—cyclodextrin complexes were frozen as a thin film on the inner side of round bottom glass container in a methanol—dry ice bath. Lyophilization was performed for 20 h using a Heto Power Dry LL3000 instrument (Thermo Fisher Scientific).
Freeze-dried products were stirred with acetonitrile for 30 min to promote complex dissociation and extraction of Nabilone. Samples were centrifuged and the residue was washed again two times with acetonitrile. Combined acetonitrile supernatants were evaporated under vacuum and the residue dissolved in a defined amount of acetonitrile. After centrifugation (10,000 rpm, 5 min) the content of Nabilone was measured using HPLC and related to 1 ml of the initial reaction solution.
Many cyclodextrins and cyclodextrin derivatives are not soluble in acetonitrile, which in contrast is the optimal solvent for Nabilone, preventing analysis of the Nabilone-cyclodextrin complexes with HPLC. […] The concentrations of the cyclodextrin solutions were adapted to their solubility in water. Whenever possible, concentrations of 15%, 20%, and 30% were selected.

Molecule	Aqueous solubility of Nabilone [1]	Nabilone solubility in water ([2]; H2O, no cyclodextrin) [µg/mL]	solubility ([2]; water, thermodynamic from solid, Nabilone solubility in water, H2O, no cyclodextrin) [µg/mL]	Amount of Nabilone solubilized by 1 ml cyclodextrin solution ([2]; 15% cyclodextrin solution) [µg/mL]	Amount of Nabilone solubilized by 1 ml cyclodextrin solution ([2]; 20% cyclodextrin solution) [µg/mL]	Amount of Nabilone solubilized by 1 ml cyclodextrin solution ([2]; 30% cyclodextrin solution)	Increase of Nabilone solubility compared to water ([2]; 30% cyclodextrin solution)
CCCCCCC(C)(C)c1cc(O)c2c(c1)OC(C)(C)C1CCC(=O)CC21 (stereo not drawn) [Nabilone]	less than 0.5 μg/ml	0.5	< 0.5	–	–	–	–
hydroxypropyl-β-Cyclodextrin [HP-β-CD]	–	–	–	16.2 ± 5.4	32.2 ± 0.1	44.5 ± 0.8 µg/mL	90 fold
randomly methylated β-Cyclodextrin [RAMEB]	–	–	–	2620 ± 70	3330 ± 390	4,460±180 μg/ml	up to 9.000 fold
β-CD sulfobutyl ether sodium salt [SBE-β-CD]	–	–	–	–	–	<1 µg/mL	–
